Measurements taken from paper PMC10343299, “S-Ethyl-Isothiocitrullin-Based Dipeptides and 1,2,4-Oxadiazole Pseudo-Dipeptides: Solid Phase Synthesis and Evaluation as NO Synthase Inhibitors” (Molecules, 2023).

Tests used:
INS-1 cells (nNOS) = test: Glucose-induced insulin secretion; type: cell-based; conditions: 5.6 mM glucose, no IL-1β, 1 h, compounds 500 µM to 5 mM, L-NAME 5 mM
Description: Indeed, pancreatic β-cells are known to constitutively express the nNOS isoform, which negatively modulates glucose-induced insulin secretion.
The insulin-secreting cell line INS-1 (a gift from Prof. C. Wolheim, Geneva, Switzerland) was cultured in RPMI-1640 supplemented with 10% FCS, 100 units/mL penicillin, 100 µg/mL streptomycin, 2 mM L-glutamine, 10 mM HEPES, 1 mM sodium pyruvate, and […] 2-mercaptoethanol, according to M. Asfari et al.’s method.
The functional effects of compounds were evaluated on INS-1 cells. Cells were preincubated for 1 h at 37 °C in a Krebs–Ringer bicarbonate buffer (108 mM NaCl, 1.19 mM KH2PO4, 4.74 mM KCl, 2.54 mM CaCl2, 1.19 mM MgSO4·7H2O, and 18 mM NaHCO3) containing 2 g/L BSA in the absence of glucose. After removal of the medium, the cells were stimulated for another hour at 37°C in the same buffer in the presence of 5.6 mM glucose and the presence of increasing concentrations of L-NAME or compounds (from 500 µM to 5 mM). At the end of the incubation period, the medium was collected, and the insulin was measured using an insulin high-range assay kit (CisBio, Codolet, France). Data are expressed as means ± SEM of the experiments (indicated in the result part).

bovine eNOS = target: T1, bovine eNOS (Bos taurus, UniProt P29473); test: NOS inhibition, oxyhemoglobin (hemoglobin capture) test, recombinant eNOS; type: biochemical; conditions: dipeptide-like series; recombinant enzyme, 10 µM arginine, triplicate; NI = <50% inhibition at 100 μM; read-out: IC50 (μM) eNOS (Bovine)
T1 construct: Full-length recombinant rat nNOS, mouse iNOS, bovine eNOS; made in house; host or cells: Escherichia coli
T1 sequence (P29473 whole entry): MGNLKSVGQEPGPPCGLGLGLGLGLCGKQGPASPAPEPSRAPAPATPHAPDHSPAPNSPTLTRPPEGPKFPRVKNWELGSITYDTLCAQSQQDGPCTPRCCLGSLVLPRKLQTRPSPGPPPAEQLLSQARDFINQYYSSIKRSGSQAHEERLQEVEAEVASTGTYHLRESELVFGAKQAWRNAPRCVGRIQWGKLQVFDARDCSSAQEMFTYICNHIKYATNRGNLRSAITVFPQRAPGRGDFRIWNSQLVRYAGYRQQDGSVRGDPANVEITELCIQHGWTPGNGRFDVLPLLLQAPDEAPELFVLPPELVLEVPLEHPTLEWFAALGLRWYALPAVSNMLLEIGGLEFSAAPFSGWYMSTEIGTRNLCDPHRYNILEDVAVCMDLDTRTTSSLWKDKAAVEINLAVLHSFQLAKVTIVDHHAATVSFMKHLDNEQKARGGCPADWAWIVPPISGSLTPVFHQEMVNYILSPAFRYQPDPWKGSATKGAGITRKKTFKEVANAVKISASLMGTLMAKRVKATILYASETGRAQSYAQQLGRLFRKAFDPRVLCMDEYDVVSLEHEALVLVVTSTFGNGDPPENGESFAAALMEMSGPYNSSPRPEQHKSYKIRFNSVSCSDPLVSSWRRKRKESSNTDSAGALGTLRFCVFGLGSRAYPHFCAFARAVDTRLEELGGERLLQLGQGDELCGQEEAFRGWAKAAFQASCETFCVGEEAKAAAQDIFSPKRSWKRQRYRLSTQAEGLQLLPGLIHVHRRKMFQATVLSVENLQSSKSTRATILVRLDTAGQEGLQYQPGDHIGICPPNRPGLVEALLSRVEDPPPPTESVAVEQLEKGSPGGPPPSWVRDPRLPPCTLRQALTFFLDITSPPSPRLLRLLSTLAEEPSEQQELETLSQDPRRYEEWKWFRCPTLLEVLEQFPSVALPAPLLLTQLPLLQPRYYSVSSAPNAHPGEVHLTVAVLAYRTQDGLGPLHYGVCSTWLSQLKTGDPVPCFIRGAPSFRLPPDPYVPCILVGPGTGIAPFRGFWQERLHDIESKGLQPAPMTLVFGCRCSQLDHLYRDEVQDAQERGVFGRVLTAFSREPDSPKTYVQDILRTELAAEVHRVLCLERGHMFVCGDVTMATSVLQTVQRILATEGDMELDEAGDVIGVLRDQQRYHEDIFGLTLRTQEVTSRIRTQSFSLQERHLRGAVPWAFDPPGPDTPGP

[1] = target: T2, oxygenase domain of nNOS (nNOSoxy) (Rattus norvegicus, UniProt P29476); test: UV-visible difference spectroscopy titration of nNOSoxy; type: binding; conditions: UV/Vis difference spectroscopy, ± SD, three experiments; read-out: Apparent equilibrium constant Ks nNOSoxy
T2 construct: the oxygenase domain of nNOS (nNOSoxy) and iNOS (iNOSoxy); made in house; host or cells: Escherichia coli
T2 sequence (P29476 1-720 limits assumed): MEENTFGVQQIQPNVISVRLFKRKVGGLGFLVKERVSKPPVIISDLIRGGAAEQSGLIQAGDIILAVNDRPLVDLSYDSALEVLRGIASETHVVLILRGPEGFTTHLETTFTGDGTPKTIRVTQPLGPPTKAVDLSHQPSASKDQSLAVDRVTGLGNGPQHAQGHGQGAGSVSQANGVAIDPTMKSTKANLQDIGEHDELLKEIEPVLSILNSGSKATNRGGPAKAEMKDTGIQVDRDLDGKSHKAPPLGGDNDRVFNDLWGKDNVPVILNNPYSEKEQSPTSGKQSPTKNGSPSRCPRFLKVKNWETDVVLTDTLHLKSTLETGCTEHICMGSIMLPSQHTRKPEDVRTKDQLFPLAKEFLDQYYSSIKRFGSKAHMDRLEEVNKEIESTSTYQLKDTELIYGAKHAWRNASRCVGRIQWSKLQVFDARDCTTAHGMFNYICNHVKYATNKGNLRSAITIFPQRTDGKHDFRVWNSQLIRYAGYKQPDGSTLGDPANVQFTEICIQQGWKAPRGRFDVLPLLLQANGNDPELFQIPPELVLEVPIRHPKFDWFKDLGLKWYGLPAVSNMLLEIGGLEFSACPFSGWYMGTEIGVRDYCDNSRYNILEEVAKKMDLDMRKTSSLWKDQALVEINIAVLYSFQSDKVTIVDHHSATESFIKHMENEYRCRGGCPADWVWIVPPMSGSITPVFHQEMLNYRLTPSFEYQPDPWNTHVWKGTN
Source text: We performed UV–visible difference spectroscopy to analyze the interaction mode of some inhibitors with the heme-active site of NOS [54]. We have studied the effects of dipeptide-like compounds 7, 17, 19, 23, and 27 and 1,2,4-oxadiazole 35 on the UV–visible spectra of the oxygenase domain of nNOS (nNOSoxy) and iNOS (iNOSoxy). As expected, when added stepwise to n- and iNOSoxy, all selected compounds elicited different spectra with a trough at ~425 nm and a peak at ~395 nm, similar to the substrate L-arginine. This profile is characteristic of type I interactions, meaning that they are bound in close proximity to the heme prosthetic group and shifted the spin state equilibrium to the pentacoordinated heme–Fe^III state. Double reverse plotting of the differences in absorbance between the peak at ~395 nm and valley at ~425 nm (ΔA395–425 nm) as a function of the concentration of the added compounds allowed calculating apparent binding constants (Ks) (Table 3). The reference inhibitor SEITU [55] tightly bound both NOS isoforms with high affinity but no selectivity. With the exception of the dipeptide-like 27 and the heterocyclic analog 35, which similarly interacted with both proteins, other compounds preferentially bound nNOSoxy over iNOSoxy with apparent affinities close to SEITU for this isoform.
Full-length recombinant rat nNOS, mouse iNOS, bovine eNOS, and the heme domains of rat brain nNOS and mouse iNOS were expressed in Escherichia coli and purified as described previously.
This study was performed as previously described.

| inhibition at 100 µM (bovine eNOS) | Kd [1] | SMILES | Effect on insulin secretion (INS-1 cells (nNOS)) |
| --- | --- | --- | --- |
| < 50% | 7.1 ± 2.6 µM | CCSC(=N)NCCC[C@H](N)C(=O)N[C@H]1CCCN(Cc2ccccc2)C1 [Compound 7] | dose-dependently stimulate glucose insulin secretion with better efficiency than L-NAME |
| < 50% | 3.6 ± 1.5 µM | CCSC(=N)NCCC[C@H](N)C(=O)N[C@H]1CCCN(Cc2ccc(Cl)c(C(F)(F)F)c2)C1 [Compound 17] | dose-dependently stimulate glucose insulin secretion with better efficiency than L-NAME |
| < 50% | 70.6 ± 22.8 µM | CCSC(=N)NCCC[C@H](N)C(=O)N[C@H]1CCCN(Cc2cccc(-c3cccc(C(=O)O)c3)c2)C1 [Compound 27] | dose-dependently stimulate glucose insulin secretion with better efficiency than L-NAME |
